Laboratory results published in publication PMC10145651, “Modulation of the 5-Lipoxygenase Pathway by Chalcogen-Containing Inhibitors of Leukotriene A4 Hydrolase” (International Journal of Molecular Sciences, 2023).
Where two headings read alike, the source gives them in different places.

Assays:
[1] = target: T1, LTA4H (Homo sapiens, UniProt P09960); test: 5-LOX product formation from intact PMNs: LTB4 (cellular activity of LTA4H); type: cell-based; settings: for inhibition of LTA4H (LTB4 production) in PMNs with exogenous AA: 10 µM inhibitor, 0–20 µM AA
T1 sequence (P09960 1-611): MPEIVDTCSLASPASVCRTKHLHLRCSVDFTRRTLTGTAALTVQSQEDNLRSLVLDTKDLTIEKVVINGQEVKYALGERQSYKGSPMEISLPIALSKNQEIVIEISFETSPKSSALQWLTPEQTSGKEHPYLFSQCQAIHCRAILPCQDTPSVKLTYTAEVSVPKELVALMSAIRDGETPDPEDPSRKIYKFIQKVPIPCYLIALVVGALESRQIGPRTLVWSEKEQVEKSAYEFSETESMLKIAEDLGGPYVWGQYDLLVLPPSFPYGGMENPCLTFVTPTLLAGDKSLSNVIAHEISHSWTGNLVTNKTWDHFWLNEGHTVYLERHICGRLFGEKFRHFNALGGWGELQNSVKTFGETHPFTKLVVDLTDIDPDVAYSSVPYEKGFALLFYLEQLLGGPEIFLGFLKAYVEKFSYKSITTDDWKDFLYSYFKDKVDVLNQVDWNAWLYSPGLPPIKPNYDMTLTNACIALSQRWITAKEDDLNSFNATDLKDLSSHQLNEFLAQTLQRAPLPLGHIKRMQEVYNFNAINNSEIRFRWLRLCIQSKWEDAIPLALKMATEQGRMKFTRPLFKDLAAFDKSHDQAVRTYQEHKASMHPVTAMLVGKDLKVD
Protocol: Human primary leukocytes were isolated from peripheral blood of healthy adult volunteers provided by the Institute of Transfusion Medicine at the University Hospital Greifswald as described before. All methods were performed in accordance with the Declaration of Helsinki. In brief, erythrocytes were removed by dextran sedimentation and leukocytes were separated by the density gradient centrifugation on a lymphocyte separation medium (Histopaque®-1077, Merck, Darmstadt, Germany). The remaining erythrocytes were removed by hypotonic lysis using water, and resulting polymorphonuclear neutrophils (PMNs) were resuspended in PBS containing 0.1% (w/v) glucose (PG buffer) or PG buffer with 1 mM CaCl2 (PGC buffer) as indicated. Resulting peripheral blood mononuclear cells (PBMC), including monocytes, were seeded in the RPMI 1640 medium supplemented with 10% (v/v) FCS, 100 U/mL penicillin, 100 µg/mL streptomycin and 2 mM L-glutamine in cell culture flasks (Greiner Bio-one, Frickenhausen, Germany) for 1.5 h at 37 °C and 5% CO2. Adherent monocytes were washed twice with PBS and were finally resuspended in the RPMI 1640 medium as described before.
PMNs (5 × 10^6 cells/mL) were diluted in PGC buffer and pre-incubated with the vehicle (0.1%; v/v) or compounds for 10 min at 37 °C prior to the stimulation with 2.5 µM A23187. After 10 min at 37 °C, treatments were stopped on ice with an equal volume of ice-cold methanol. Next, 530 µL acidified PBS containing 200 ng PGB1 as an internal standard were added to the sample followed by the solid phase extraction with on a RP18 column. […] Formed 5-LOX metabolites were analyzed as described previously.

[2] = target: T1, LTA4H; test: Epoxide hydrolase inhibition assay with recombinant LTA4H (LTA4 to LTB4); type: biochemical; parameters: made in house; host or cells: Escherichia coli JM101; settings: epoxide hydrolase activity, 10-40 μM LTA4, competitive inhibition model
Description: Human recombinant LTA4H was expressed in Escherichia coli JM101 strain and purified as described previously. In short, supernatant of lysed cells was loaded on a nickel affinity column followed by the purification steps with the Mono Q 5/50 and Superdex HiLoad 16/600 columns (Cytiva, Uppsala, Sweden). Protein purity was checked by sodium dodecyl-sulfate polyacrylamide gel electrophoresis (SDS-PAGE)(XCell SureLock Mini-Cell Electrophoresis System and PowerEase 300W Power Supply) with a NuPAGE Bis-Tris 4–12% gels (Invitrogen, Waltham, MA, USA) after every purification step.
Purified LTA4H (3 μg) was pre-incubated with 0–50 μM inhibitors on ice for 3 min and the epoxide hydrolase reaction was carried out with 10 μM, 20 μM or 40 μM LTA4 for 15 s in 100 μL 25 mM Tris-HCl pH 7.8 at room temperature. The incubation was stopped by addition of 2 vol of methanol, containing 300 pmol PGB2 (ε ~ 26,000 M^−1 cm^−1; λmax = 280 nm) as an internal standard, and followed by 1 vol of distilled water. […] The formation of LTB4 (ε ~ 50,000 M^−1 cm^−1) was determined at 270 nm. The Ki value for each inhibitor was calculated using the competitive inhibition model in the GraphPad Prism 9 program.

[3] = target: T1, LTA4H; test: Peptidase assay of LTA4H with pNa and AMC conjugates; type: biochemical; parameters: made in house; host or cells: Escherichia coli JM101; settings: for AC50: activation; for fold change of specific activity with L-Arg-AMC / fold change of specific activity with L-Arg-pNa / fold change of specific activity with L-Pro-AMC: vs LTA4H without inhibitor (decrease); for fold change of specific activity with L-Ala-pNa / fold change of specific activity with L-Leu-pNa / fold change of specific activity with L-Val-pNa: vs LTA4H without inhibitor (increase); for Specific activity of LTA4H with L-Ala-pNa in the presence of inhibitor: substrate L-Ala-pNa; for Specific activity of LTA4H with L-Ala-pNa in the presence of inhibitor / Specific activity of LTA4H with L-Arg-AMC in the presence of inhibitor / Specific activity of LTA4H with L-Arg-pNa in the presence of inhibitor / Specific activity of LTA4H with L-Leu-pNa in the presence of inhibitor / Specific activity of LTA4H with L-Pro-AMC in the presence of inhibitor / Specific activity of LTA4H with L-Pro-pNa in the presence of inhibitor / Specific activity of LTA4H with L-Val-pNa in the presence of inhibitor: mean ± SEM, n = 3; for Specific activity of LTA4H with L-Arg-AMC in the presence of inhibitor: substrate L-Arg-AMC; for Specific activity of LTA4H with L-Arg-pNa in the presence of inhibitor: substrate L-Arg-pNa; for Specific activity of LTA4H with L-Leu-pNa in the presence of inhibitor: substrate L-Leu-pNa; for Specific activity of LTA4H with L-Pro-AMC in the presence of inhibitor: substrate L-Pro-AMC; for Specific activity of LTA4H with L-Pro-pNa in the presence of inhibitor: substrate L-Pro-pNa; for Specific activity of LTA4H with L-Val-pNa in the presence of inhibitor: substrate L-Val-pNa
Protocol: In addition, the aminopeptidase assay was performed with p-nitroanilide (pNa) and 7-amido-4-methylcoumarin (AMC) conjugates containing different N-terminal amino acids. Incubations were carried out with 1 μg LTA4H and 1 mM pNa substrates or 5 µM AMC substrates in 400 μL 10 mM Tris-HCl pH 7.8 containing 100 mM KCl at room temperature for 30 min. The absorbance of released pNa was measured after every 5 min at 405 nm using a TECAN Infinite M200 plate reader. The measurements with AMC derivatives were carried out using a black polystyrene 96-well plate and the fluorescence of released AMC at 360 nm/460 nm (ex/em) was recorded. Specific activities were calculated based on the standard curves of free pNA and AMC (Figure S10). The activation (AC50) or inhibition constants (IC50) were determined using the non-linear regression approach in the GraphPad Prism 9 program.

[4] = A23187-activated intact PMNs, LTB4 formation, read-out: IC50 on the activity of LTA4H (LTB4) in PMNs
[5] = 5 µM L-Arg-AMC, read-out: IC50, peptidase activity with L-Arg-AMC
[6] = 5 µM L-Pro-AMC, read-out: IC50, peptidase activity with L-Pro-AMC
[7] = 1 mM L-Arg-pNa, read-out: IC50, peptidase activity with L-Arg-pNa
[8] = 1 mM L-Lys-pNa, read-out: IC50, peptidase activity with L-Lys-pNa
[9] = 1 mM L-Ala-pNa, read-out: AC50, peptidase activity with L-Ala-pNa
[10] = 1 mM L-Leu-pNa, read-out: AC50, peptidase activity with L-Leu-pNa
[11] = 1 mM L-Val-pNa, read-out: AC50, peptidase activity with L-Val-pNa

SMILES | inhibition of LTA4H (LTB4 production) in PMNs with exogenous AA [1] | IC50 [1, 4] | Ki [2] | IC50 [3, 5] | IC50 [3, 6] | IC50 [3, 7] | IC50 [3, 8] | AC50 [3, 9] | AC50 [3, 10] | AC50 [3, 11] | fold change of specific activity with L-Arg-AMC ([3]; in parentheses) | fold change of specific activity with L-Arg-pNa ([3]; in parentheses) | fold change of specific activity with L-Pro-AMC ([3]; in parentheses) | Specific activity of LTA4H with L-Ala-pNa in the presence of inhibitor [3] | Specific activity of LTA4H with L-Arg-AMC in the presence of inhibitor [3] | Specific activity of LTA4H with L-Arg-pNa in the presence of inhibitor [3] | Specific activity of LTA4H with L-Leu-pNa in the presence of inhibitor [3] | Specific activity of LTA4H with L-Pro-AMC in the presence of inhibitor [3] | Specific activity of LTA4H with L-Pro-pNa in the presence of inhibitor [3] | Specific activity of LTA4H with L-Val-pNa in the presence of inhibitor [3] | also measured
Nc1nc(-c2ccc(Cc3ccccc3)cc2)co1 [TTO, 4-(4-benzylphenyl) oxazol-2-amine] | higher production of LTB4 | 800 nM | 3800 nM | 440 ± 140 nM | 310 ± 50 nM | 460 ± 50 nM | 890 ± 710 nM | 280 ± 40 nM | 560 ± 60 nM | 210 ± 20 nM | 3 x | 89 x | 2 x | 93.0 ± 1.7 µmol/µg/min | 9.9 ± 0.1 µmol/µg/min | 0.2 ± 0.1 µmol/µg/min | 46.9 ± 1.7 µmol/µg/min | 15.8 ± 0.2 µmol/µg/min | 2.3 ± 0.2 µmol/µg/min | 24.4 ± 0.4 µmol/µg/min | fold change of specific activity with L-Pro-pNa ([3]; in parentheses, vs LTA4H without inhibitor): 1.3 x; fold change of specific activity with L-Ala-pNa ([3]; in parentheses): 9 x; fold change of specific activity with L-Leu-pNa ([3]; in parentheses): 12 x; fold change of specific activity with L-Val-pNa ([3]; in parentheses): 30 x
Nc1nc(-c2ccc(Cc3ccccc3)cc2)cs1 [ARM1, 4-(4-benzylphenyl) thiazol-2-amine, reference compound] | almost complete | 600 nM | 1500 nM | 330 ± 90 nM | 300 ± 70 nM | 360 ± 60 nM | 1060 ± 240 nM | 180 ± 40 nM | 480 ± 50 nM | 230 ± 20 nM |  |  |  | 79.6 ± 7.6 µmol/µg/min | 10.1 ± 0.1 µmol/µg/min | 0.20 ± 0.03 µmol/µg/min | 46.3 ± 1.7 µmol/µg/min | 16.0 ± 0.2 µmol/µg/min | 2.65 ± 0.12 µmol/µg/min | 24.9 ± 0.8 µmol/µg/min | 
Nc1nc(-c2ccc(Cc3ccccc3)cc2)c[se]1 [TTSe, 4-(4-benzylphenyl) selenazol-2-amine] | almost complete |  | 4800 nM |  |  |  |  |  |  |  | 3 x | 94 x | 2 x | 88.0 ± 4.6 µmol/µg/min | 10.1 ± 0.1 µmol/µg/min | 0.20 ± 0.07 µmol/µg/min | 37.6 ± 1.1 µmol/µg/min | 15.7 ± 0.2 µmol/µg/min | 2.8 ± 0.1 µmol/µg/min | 24.6 ± 0.5 µmol/µg/min | IC50 [1]: 800 nM; AC50 ([3]; AC50, peptidase activity with L-Ala-pNa, 1 mM L-Ala-pNa): 210 ± 30 nM; AC50 ([3]; AC50, peptidase activity with L-Leu-pNa, 1 mM L-Leu-pNa): 520 ± 50 nM; AC50 ([3]; AC50, peptidase activity with L-Val-pNa, 1 mM L-Val-pNa): 270 ± 30 nM; IC50 ([3]; IC50, peptidase activity with L-Arg-AMC, 5 µM L-Arg-AMC): 380 ± 90 nM; IC50 ([3]; IC50, peptidase activity with L-Arg-pNa, 1 mM L-Arg-pNa): 490 ± 100 nM; IC50 ([3]; IC50, peptidase activity with L-Lys-pNa, 1 mM L-Lys-pNa): 1010 ± 360 nM; IC50 ([3]; IC50, peptidase activity with L-Pro-AMC, 5 µM L-Pro-AMC): 250 ± 20 nM; fold change of specific activity with L-Ala-pNa ([3]; in parentheses): 9 x; fold change of specific activity with L-Leu-pNa ([3]; in parentheses): 10 x; fold change of specific activity with L-Val-pNa ([3]; in parentheses): 30 x
